Experimental data taken from patent US20100268187A1, “PACKAGING FOR SIROLIMUS AND COMPOSITION THEREOF” (Ranbaxy Laboratories Limited, priority 2009, published 2010).

Experiment: Stability studies of sirolimus particles packed in vacuum sealed impermeable container at 25° C. and 60% RH, impurities by gradient HPLC
Assay type: physicochemical
Conditions: three months
Excerpt: Sirolimus particles (d90-4.1 micron) were packed in a bag made up of laminate having a polyester and a polyethylene layer wherein the layers have a thickness of 12 micron and 75 micron, respectively. The bag was sealed under vacuum. The vacuum sealed bag was put into second bag made up of laminate having polyester, aluminium foil, polyester and polyethylene layer wherein the layers have a thickness of 12 micron, 12 micron, 12 micron and 75 microns, respectively. The second bag was sealed under vacuum and was subjected to stability studies at 25° C. and 60% RH for three months.
Quantitative determination was carried out using Gradient High Performance Liquid Chromatography with a mixture of ammonium phosphate buffer and an organic phase (acetonitrile and tetrahydrofuran) as the mobile phase, ACE C18, HL, 5 μm column as a stationary phase and a UV detector.

- Stability on storage: stable
SMILES: CO[C@H]1C[C@@H]2CC[C@@H](C)[C@@](O)(O2)C(=O)C(=O)N2CCCC[C@H]2C(=O)O[C@H]([C@H](C)C[C@@H]2CC[C@@H](O)[C@H](OC)C2)CC(=O)[C@H](C)/C=C(\C)[C@@H](O)[C@@H](OC)C(=O)[C@H](C)C[C@H](C)/C=C/C=C/C=C/1C [sirolimus particles, Sirolimus]
